Experimental data reported in patent US11331337B2, “Heparin and heparan sulphate oligosaccharides” (Agency for Science, Technology and Research, priority 2017, dated 2022).

What was measured:
[1] = target: T1, BMP-2 (Homo sapiens, UniProt P12643); assay: Surface plasmon resonance BMP-2 competitive binding assay; conditions: 10 μg/mL pre-incubated with BMP-2 25 nM, applied to heparin-coated SPR chip
T1 construct: purchased R&D Systems Inc. (U.S.A.)
T1 sequence (P12643 283-396): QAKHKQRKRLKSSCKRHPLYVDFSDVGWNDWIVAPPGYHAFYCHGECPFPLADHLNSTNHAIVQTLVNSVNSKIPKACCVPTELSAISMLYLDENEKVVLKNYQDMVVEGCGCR
Method: Briefly, 20 mg heparin was biotinylated at free amine groups using 8.6 μM NHS-biotin in dimethyl sulfoxide, after which excess unreacted NHS-biotin was removed by passing the sample through two 7 kDa molecular weight cut-off Zeba spin desalting columns. […] Heparin oligosaccharides were used at a concentration of 10 μg/mL in HBS-EP 0.1% buffer (HBS-EP with 0.1% (v/v) Tween-20). […] The response was measured as a function of time at 25° C. R.U.s for the heparin surface were determined by subtracting the R.U. of the control (uncoated) flow channel from those of the heparin-biotin-coated flow channel. Representative sensorgrams from all competitive binding experiments may be found in supplementary information (FIG. 1). […] Data constitutes the mean±S.D. of three independent experiments.

[2] = test system: C2C12 cells; assay: Alkaline phosphatase (ALP) activity assay in C2C12 cells; type: cell-based, murine; conditions: with BMP-2 100 ng/mL, 5 μg/mL, 3 days
Method: C2C12 cells were maintained as described above and seeded at 2×10^4 cells/cm2 in tissue culture treated 24-well plates. The cells were cultured in treatment media for 3 days, after which total protein was extracted and ALP activity was determined. Briefly, cells were washed with PBS and total protein extracted with RIPA buffer containing a protease inhibitor cocktail. Total protein concentration was determined using the BCA assay, then 7.5 μg of total protein per condition was combined with p-nitrophenylphosphate (Thermo-Fisher). […] Data represents mean±S.D. of three independent experiments.

dextran sulfate was tested, and the “percentage of BMP-2 sequestered in solution (reduction in response units vs. BMP-2 alone)” value [1] was “able to bind BMP-2 with high affinity” and the “BMP-2-induced ALP activity” value [2] was “inhibited BMP-2 bioactivity in vitro”.
